Holding throughout (format): biochemical
Assay [1] concerns the target T1, recombinant human DAO (diamine oxidase) (Homo sapiens, UniProt P19801).
T1 construct: purchased R&D systems
T1 sequence (P19801 20-751): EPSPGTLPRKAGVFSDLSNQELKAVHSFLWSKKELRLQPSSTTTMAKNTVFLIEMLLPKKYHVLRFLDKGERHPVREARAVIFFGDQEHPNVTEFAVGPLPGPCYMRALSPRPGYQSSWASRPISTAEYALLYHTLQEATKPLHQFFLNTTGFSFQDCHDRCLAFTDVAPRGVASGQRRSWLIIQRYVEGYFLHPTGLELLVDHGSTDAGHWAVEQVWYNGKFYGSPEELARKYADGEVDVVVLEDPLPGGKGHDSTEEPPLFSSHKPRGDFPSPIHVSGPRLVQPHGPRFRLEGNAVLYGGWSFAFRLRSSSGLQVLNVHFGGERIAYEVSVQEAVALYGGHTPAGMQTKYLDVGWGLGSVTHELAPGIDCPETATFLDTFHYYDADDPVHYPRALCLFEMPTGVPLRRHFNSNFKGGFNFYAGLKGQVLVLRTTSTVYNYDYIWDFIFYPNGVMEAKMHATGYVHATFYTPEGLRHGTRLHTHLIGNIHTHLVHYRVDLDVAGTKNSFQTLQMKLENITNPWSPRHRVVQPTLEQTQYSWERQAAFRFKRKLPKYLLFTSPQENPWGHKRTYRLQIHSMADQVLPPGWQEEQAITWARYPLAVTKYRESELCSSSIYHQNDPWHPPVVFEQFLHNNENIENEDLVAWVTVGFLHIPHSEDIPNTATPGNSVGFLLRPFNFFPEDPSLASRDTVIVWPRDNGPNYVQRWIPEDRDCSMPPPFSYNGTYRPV
Nature of the assay: Activity evaluation on recombinant human DAO (Amplex Red/HRP-coupled assay, 1 mM putrescine substrate). Conditions: read-out: Inhibitory Activity (IC50, nM) DAO. In short, it runs like this: (§1)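 Enzyme was preincubated with compounds (8-point 1:3 series, final DMSO <1%) 30 min at 37 °C in 50 mM sodium phosphate pH 7.4, then given 200 uM Amplex Red and 1 U/mL HRP with substrate. H2O2-derived resorufin fluorescence (ex 544/em 590 nm) was followed over 1–2 h; IC50 came from 4-parameter logistic fits of signal-rate inhibition versus DMSO control.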

For assay [2], the target named is T2, recombinant human MAO-B (monoamine oxidase-B) (Homo sapiens, UniProt P27338).
T2 construct: purchased Sigma-Aldrich
T2 sequence (P27338 1-520): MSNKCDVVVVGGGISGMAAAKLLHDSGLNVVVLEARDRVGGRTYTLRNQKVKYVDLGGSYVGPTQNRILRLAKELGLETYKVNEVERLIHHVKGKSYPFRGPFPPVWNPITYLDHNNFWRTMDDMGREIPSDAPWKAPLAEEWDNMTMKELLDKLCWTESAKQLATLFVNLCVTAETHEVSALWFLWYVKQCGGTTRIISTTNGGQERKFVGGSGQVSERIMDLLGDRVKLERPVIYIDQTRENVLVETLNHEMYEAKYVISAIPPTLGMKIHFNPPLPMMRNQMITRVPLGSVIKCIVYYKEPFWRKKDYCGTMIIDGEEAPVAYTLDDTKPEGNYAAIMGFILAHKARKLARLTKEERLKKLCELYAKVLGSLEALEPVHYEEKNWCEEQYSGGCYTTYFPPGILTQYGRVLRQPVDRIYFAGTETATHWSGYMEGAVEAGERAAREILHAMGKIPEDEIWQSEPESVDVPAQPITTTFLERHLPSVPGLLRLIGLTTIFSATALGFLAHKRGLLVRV
Nature of the assay: Activity evaluation on recombinant human MAO-B (Amplex Red/HRP-coupled assay, 1 mM benzylamine substrate). Conditions: read-out: Inhibitory Activity (IC50, nM) MAO-B. In short, it runs like this:
as §1

The target in the next assay is T3, recombinant human VAP-1 (Homo sapiens, UniProt Q16853).
T3 construct: purchased R&D systems
T3 sequence (Q16853 1-763): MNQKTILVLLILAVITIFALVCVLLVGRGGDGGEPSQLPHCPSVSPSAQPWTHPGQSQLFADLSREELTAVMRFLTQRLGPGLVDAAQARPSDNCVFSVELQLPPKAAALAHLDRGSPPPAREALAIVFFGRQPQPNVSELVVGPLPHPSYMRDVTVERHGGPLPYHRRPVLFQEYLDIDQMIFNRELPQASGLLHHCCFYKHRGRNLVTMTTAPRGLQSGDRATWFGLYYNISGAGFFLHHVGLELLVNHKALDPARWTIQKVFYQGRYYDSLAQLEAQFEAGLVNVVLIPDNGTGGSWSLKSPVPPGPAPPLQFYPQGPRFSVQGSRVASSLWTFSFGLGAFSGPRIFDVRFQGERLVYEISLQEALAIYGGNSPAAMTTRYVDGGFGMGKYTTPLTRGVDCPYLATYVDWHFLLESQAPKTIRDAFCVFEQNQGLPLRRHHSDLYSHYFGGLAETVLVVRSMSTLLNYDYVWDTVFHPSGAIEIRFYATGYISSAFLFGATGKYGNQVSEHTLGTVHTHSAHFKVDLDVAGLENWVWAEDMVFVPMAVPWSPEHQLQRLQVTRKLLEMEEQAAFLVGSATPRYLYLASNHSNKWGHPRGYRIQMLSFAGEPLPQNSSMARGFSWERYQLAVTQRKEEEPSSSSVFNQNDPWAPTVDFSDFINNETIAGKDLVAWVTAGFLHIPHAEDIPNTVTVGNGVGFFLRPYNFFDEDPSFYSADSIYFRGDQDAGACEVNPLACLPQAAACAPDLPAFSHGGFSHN
Nature of the assay: Activity evaluation on recombinant human VAP-1 (Amplex Red/HRP-coupled hydrogen peroxide assay, benzylamine substrate). Conditions: read-out: Inhibitory Activity (IC50, nM) human VAP-1. In short, it runs like this:
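Recombinant human VAP-1 in 50 mM sodium phosphate pH 7.4 preincubated 30 min at 37 °C with compound (8-point 1:3 series, <1% DMSO), then 1 mM benzylamine, 200 uM Amplex Red, 1 U/mL HRP added. H2O2-derived resorufin fluorescence (ex 544/em 590) followed 1–2 h; IC50 from four-parameter fit of rate inhibition.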

Assay [3] deals with T4, recombinant human MAO-A (monoamine oxidase-A) (Homo sapiens, UniProt P21397).
T4 construct: purchased Sigma-Aldrich
T4 sequence (P21397 1-527): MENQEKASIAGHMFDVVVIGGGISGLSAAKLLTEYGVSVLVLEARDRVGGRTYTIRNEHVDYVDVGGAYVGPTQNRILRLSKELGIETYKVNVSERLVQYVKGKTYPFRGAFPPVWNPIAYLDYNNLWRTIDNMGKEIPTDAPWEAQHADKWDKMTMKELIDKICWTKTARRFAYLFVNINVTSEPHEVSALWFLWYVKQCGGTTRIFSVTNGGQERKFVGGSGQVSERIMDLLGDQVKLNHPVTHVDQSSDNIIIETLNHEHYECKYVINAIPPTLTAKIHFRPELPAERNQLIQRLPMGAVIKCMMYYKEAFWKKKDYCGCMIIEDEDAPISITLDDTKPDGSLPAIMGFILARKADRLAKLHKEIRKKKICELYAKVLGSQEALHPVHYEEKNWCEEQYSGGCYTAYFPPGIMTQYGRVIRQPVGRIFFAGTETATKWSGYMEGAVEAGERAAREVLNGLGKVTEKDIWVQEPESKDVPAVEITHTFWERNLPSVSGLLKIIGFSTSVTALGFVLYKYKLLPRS
Nature of the assay: Activity evaluation on recombinant human MAO-A (Amplex Red/HRP-coupled assay, 0.5 mM tyramine substrate). Conditions: read-out: Inhibitory Activity (IC50, nM) MAO-A. In short, it runs like this: as §1

[4] abbreviates: recombinant human VAP-1, 30 min preincubation at 37° C., 1 mM benzylamine.
Setting [5] is: recombinant human VAP-1, benzylamine substrate.

We go through 11 compounds from patent US11168073B2, “3,3-difluoroallylamines or salts thereof and pharmaceutical compositions comprising the same” (YUHAN CORPORATION, priority 2018, dated 2021).

SMILES strings stand for the structures. Where a name gives a salt, the structure may show the parent alone. Read-outs that look alike come from different tables or passages of the source.

Broadly, the IC50 is the point on the concentration scale where inhibition reaches its midpoint. On to `Cc1ccc(Br)nc1-n1cnn(CC(CN)=C(F)F)c1=O` [Example 15, 2-[2-(aminomethyl)-3,3-difluoro-allyl]-4-(6-bromo-3-methyl-2-pyridyl)-1,2,4-triazol-3-one Trifluoroacetate], for which the half-maximal inhibitory concentration (IC50) in assay [1] (1 mM putrescine) is over 100000 nM; in assay [2] (1 mM benzylamine) it was over 100000 nM; at recombinant human VAP-1 (setting [4]), 3 nM; in assay [3] (0.5 mM tyramine), over 100000 nM.
Consider `CS(=O)(=O)c1ccc(-c2cccc(Cn3cnn(CC(CN)=C(F)F)c3=O)c2)cc1` [Example 272, 2-[2-(aminomethyl)-3,3-difluoro-allyl]-4-[[3-(4-methylsulfonylphenyl)phenyl]methyl]-1,2,4-triazol-3-one Trifluoroacetate], for which the IC50 is 4330 nM in assay [1] (1 mM putrescine substrate), 23800 nM in assay [2] (1 mM benzylamine substrate), 3.2 nM at recombinant human VAP-1 (setting [5]) and over 100000 nM in assay [3] (0.5 mM tyramine substrate).
For `CC(=O)c1ccc(-c2cnc(-n3cnn(CC(CN)=C(F)F)c3=O)c(C)c2)s1` [Example 231, 4-[5-(5-acetyl-2-thienyl)-3-methyl-2-pyridyl]-2-[2-(aminomethyl)-3,3-difluoro-allyl]-1,2,4-triazol-3-one Trifluoroacetate] the same measures were 3910 nM, 1950 nM, 0.2 nM and 40400 nM.
Regarding `NCC(Cn1ncn(-c2ccc(-c3ccc(N4CCNCC4)cc3)c(F)c2)c1=O)=C(F)F` [Example 25, 2-[2-(aminomethyl)-3,3-difluoro-allyl]-4-[3-fluoro-4-(4-piperazin-1-ylphenyl)phenyl]-1,2,4-triazol-3-one Ditrifluoroacetate], the IC50 is 1300 nM in assay [1] (1 mM putrescine), over 10000 nM in assay [2] (1 mM benzylamine), 1.7 nM at recombinant human VAP-1 (setting [4]) and 6280 nM in assay [3] (0.5 mM tyramine).
`CCn1cc(-c2cnc(-n3cnn(CC(CN)=C(F)F)c3=O)cn2)cn1` [Example 95, 2-[2-(aminomethyl)-3,3-difluoro-allyl]-4-[5-(1-ethylpyrazol-4-yl)pyrazin-2-yl]-1,2,4-triazol-3-one Trifluoroacetate]: the IC50 was 19 nM in assay [1] (1 mM putrescine), 1300 nM in assay [2] (1 mM benzylamine), 0.6 nM on recombinant human VAP-1 (setting [4]) and over 100000 nM in assay [3] (0.5 mM tyramine).
In the case of `Cc1cc(-c2ccc(C(F)(F)F)nc2)sc1Cn1cnn(CC(CN)=C(F)F)c1=O` [Example 156, 2-[2-(aminomethyl)-3,3-difluoro-allyl]-4-[[3-methyl-5-[6-(trifluoromethyl)-3-pyridyl]-2-thienyl]methyl]-1,2,4-triazol-3-one Trifluoroacetate], the IC50 in assay [1] (1 mM putrescine) is 9100 nM; in assay [2] (1 mM benzylamine) it was 17000 nM; on recombinant human VAP-1 (setting [4]), 3.2 nM; in assay [3] (0.5 mM tyramine) it was over 100000 nM.
As for `NCC(Cn1ncn(Cc2ccccc2-c2ccc3c(c2)OCO3)c1=O)=C(F)F` [Example 282, 2-[2-(aminomethyl)-3,3-difluoro-allyl]-4-[[2-(1,3-benzodioxol-5-yl)phenyl]methyl]-1,2,4-triazol-3-one Trifluoroacetate], the IC50 was over 100000 nM in assay [1] (1 mM putrescine substrate), over 100000 nM in assay [2] (1 mM benzylamine substrate), 28 nM at recombinant human VAP-1 (setting [5]) and over 100000 nM in assay [3] (0.5 mM tyramine substrate).
Turning to `NCC(Cn1ncn(-c2cnc(Br)cn2)c1=O)=C(F)F` [Example 16, 2-[2-(aminomethyl)-3,3-difluoro-allyl]-4-(5-bromopyrazin-2-yl)-1,2,4-triazol-3-one Trifluoroacetate], the IC50 in assay [1] (1 mM putrescine) was 1100 nM; in assay [2] (1 mM benzylamine), 38000 nM; on recombinant human VAP-1 (setting [4]) it was 4.6 nM; in assay [3] (0.5 mM tyramine), over 100000 nM.
For the compound `Cc1cc(-c2ccc3sc(Cn4cnn(CC(CN)=C(F)F)c4=O)cc3c2)cc2c1NC(=O)CC2` [Example 210, 6-[2-[[1-[2-(aminomethyl)-3,3-difluoro-allyl]-5-oxo-1,2,4-triazol-4-yl]methyl]benzothiophen-5-yl]-8-methyl-3,4-dihydro-1H-quinolin-2-one Trifluoroacetate], the IC50 in assay [1] (1 mM putrescine substrate) was 1230 nM; in assay [2] (1 mM benzylamine substrate), over 100000 nM; at recombinant human VAP-1 (setting [5]) it was 1.5 nM; in assay [3] (0.5 mM tyramine substrate), over 100000 nM.
As for `CCn1cc(-c2cccc(Cn3cnn(CC(CN)=C(F)F)c3=O)c2)cn1` [Example 271, 2-[2-(aminomethyl)-3,3-difluoro-allyl]-4-[[3-(1-ethylpyrazol-4-yl)phenyl]methyl]-1,2,4-triazol-3-one Trifluoroacetate], the IC50 in assay [1] (1 mM putrescine substrate) was over 100000 nM; in assay [2] (1 mM benzylamine substrate) it was 1590 nM; on recombinant human VAP-1 (setting [5]), 2.2 nM; in assay [3] (0.5 mM tyramine substrate), over 100000 nM.
On to `CCn1cc(-c2ccc(-c3csc(Cn4cnn(CC(CN)=C(F)F)c4=O)c3)cc2)cn1` [Example 288, 2-[2-(aminomethyl)-3,3-difluoro-allyl]-4-[[4-[4-(1-ethylpyrazol-4-yl)phenyl]-2-thienyl]methyl]-1,2,4-triazol-3-one Trifluoroacetate], for which the IC50 in assay [1] (1 mM putrescine substrate) was 3780 nM; in assay [2] (1 mM benzylamine substrate), 3230 nM; at recombinant human VAP-1 (setting [5]), 2.6 nM; in assay [3] (0.5 mM tyramine substrate) it was 2910 nM.
